{"source": "ChEMBL document CHEMBL5046290", "about": "“Design, Synthesis, and Preclinical Profiling of GSK3739936 (BMS-986180), an Allosteric Inhibitor of HIV-1 Integrase with Broad-Spectrum Activity toward 124/125 Polymorphs” (J Med Chem, 2022)", "settings_in_all_cases": "in vivo", "key": {"[1]": {"assay": "Toxicity in rat assessed as change in parathyroid gland at 500 mg/kg/day", "type": "organism-based"}, "[2]": {"assay": "AUC in Beagle dog at 2 mg/kg, po by LC-MS/MS analysis", "type": "ADME, organism-based, Canis lupus familiaris", "set-up": "dose 2 mg/kg"}, "[3]": {"assay": "Toxicity in dog assessed as fecal change at upto 300 mg/kg, po administered as single dose", "type": "organism-based, Canis lupus familiaris"}}}
{"compound": "Cc1nc(C)c([C@H](OC(C)(C)C)C(=O)O)c(N2CCC(C)(C)CC2)c1-c1ccc(OCCc2ccc(F)cc2)cc1", "values": [{"measurement": "Activity", "setting": "[1]", "value": "Toxic"}, {"measurement": "AUC", "setting": "[2]", "value": 18.5, "unit": "µM·h"}, {"measurement": "Activity", "setting": "[3]", "value": "Toxic"}]}
